Like-named read-outs stand apart in the source and are kept apart here.
Experiments:
[1] = tested on: spontaneously hypertensive rats; assay: Antihypertensive activity in spontaneously hypertensive rats, intravenous administration; assay type: in vivo
Description: 2. Intravenous administration
Spontaneously hypertensive rats aged between 16 and 20 weeks are used. They are anesthetized with diethyl ether, a cannula is inserted into the caudal artery to measure the arterial pressure and a catheter is inserted into the right jugular vein to administer the compounds as described previously (L. S. Watson and L. T. Ludden, New Antihypertensive Drugs, pages 87-96, Spectrum Publication, Inc., 1976).
Each curve C relates to the control group receiving only the vehicle and each curve T relates to the treated group [n (number of animals per group)=4-7]. The said groups are compared either by analysis of variance, if the variances are homogenous (Bartlett's homocedasticity test), or by Kruskall-Wallis's non-parametric test (the statistically significant results being represented as follows:
FIGS. 1-6 relate to the variation in systolic pressure, expressed in mm Hg (1 mm Hg corresponds approximately to 1.333×10^2 Pa), as a function of time, expressed in minutes, and FIGS. 1a-6a relate to the variation in diastolic pressure, also expressed in mm Hg, as a function of time, expressed in minutes, for the treated groups (curves T) compared with the corresponding control groups (curves C), the doses of products administered being as follows:
FIGS. 2 and 2a: nicardipine at 30 μg/kg i.v.,
FIGS. 3 and 3a: Example 2 at 30 μg/kg i.v.,
FIGS. 4 and 4a: Example 7 at 100 μg/kg i.v.,
FIGS. 5 and 5a: Example 8 at 300 μg/kg i.v., and
FIGS. 6 and 6a: Example 11 at 30 and 100 μg/kg i.v. (curves T1 and T2).

rabbit aorta = assay: Relaxing effect on isolated rabbit aorta contracted (depolarized) by KCl; settings: Oryctolagus cuniculus; rabbit aorta depolarized by 127 mM KCl; read-out: ED50 (dose causing a 50% relaxation of the precontracted arteries)
Procedure: I. RELAXING EFFECT ON ISOLATED RABBIT AORTA CONTRACTED BY KCl
The thoracic aortae of male rabbits are removed, cut into narrow strips and placed under tension in an oxygenated survival medium. The contractions of these arteries, the amplitude of which is measured using a myograph, are induced by a 127 mM solution of KCl [R. Towart et al., Arzneim.-Forsch./Drug Res. 32, 338-346 (1982)]. The compounds studied are dissolved in a mixture of anhydrous ethanol and double distilled water (1:1) v/v, the percentage of ethanol in the baths being less than or equal to 0.3% at the end of the experiment. When the contraction plateau is reached, the compound is added to the medium in increasing doses every 15 minutes.

in vivo = settings: rat, intravenous, male Wistar rats weighing 300 g
Procedure: The LD50 was determined by intravenous administration to male Wistar rats weighing 300 g.

[2] = tested on: spontaneously hypertensive rats; assay: Antihypertensive activity in spontaneously hypertensive rats, oral administration; assay type: in vivo; settings: 30 mg/kg; for change in vivo at 30 mg/kg: Rattus norvegicus
Procedure: Spontaneously hypertensive rats aged between 16 and 20 weeks are used. The systolic pressure is measured by plethysmography and the heart rate is obtained from the pressure graph. The compounds studied are administered orally.

anesthetized dogs = assay: Hemodynamic effects on anesthetized dogs, intraduodenal administration; assay type: in vivo, Mongrel dogs; settings: 0.5 mg/kg
Procedure: III. HEMODYNAMIC EFFECTS ON ANESTHETIZED DOGS Mongrel dogs are anesthetized with pentobarbital sodium (25 mg/kg i.v.). Each animal is placed under artificial respiration and a catheter is introduced into the aorta to measure the arterial pressure. The outputs of the aorta (O. Aor.), right femoral artery (O. Fem.) and left coronary artery (descending part) (O. Cor.) are measured continuously by means of electromagnetic rings. The total peripheral resistances (T.P.R.) are also calculated. […]

[3] = versus nicardipine and nifedipine

COC(=O)C1=C(C)NC(C)=C(C(=O)OCC2COC3(CCCCC3)O2)C1c1cccc([N+](=O)[O-])c1 (centres unmarked) [Example 2, methyl (1,4-dioxaspiro[4,5]decan-2-yl)methyl 1,4-dihydro-2,6-dimethyl-4-(3-nitrophenyl)pyridine-3,5-dicarboxylate]
drop in systolic and diastolic pressures (in words) ([1]; 30 μg/kg i.v., versus nicardipine 30 μg/kg and nifedipine 300 μg/kg i.v.): greater drop in systolic and diastolic pressures than nicardipine at the same dose and nifedipine at 10 times the dose | duration of the antihypertensive effect (in words) ([1]; single i.v. dose, Ex. 2 30, Ex. 7 100, Ex. 8 300, Ex. 11 30 and 100 μg/kg, versus nicardipine and nifedipine): notably longer than that of nicardipine and nifedipine | EC50 (rabbit aorta): 50 nM | LD50 (in vivo): 27.9 mg/kg | duration of the effect, Systolic pressure [2]: > 24 h | change in vivo at 30 mg/kg ([2]; read-out: % variation Heart rate): 24.5% | change in vivo at 30 mg/kg ([2]; read-out: % variation Systolic pressure): -45.4 ± 6.3% | % variation D.P. (diastolic pressure) (anesthetized dogs): -41.2% | % variation O. Aor. (output of the aorta) (anesthetized dogs): +40.2% | % variation O. Cor. (output of left coronary artery) (anesthetized dogs): +89.5% | % variation O. Fem. (output of right femoral artery) (anesthetized dogs): +180.5% | duration of the effect, D.P. (diastolic pressure) (anesthetized dogs): 240 min | duration of the effect, O. Aor. (output of the aorta) (anesthetized dogs): 300 min | duration of the effect, O. Cor. (output of left coronary artery) (anesthetized dogs): 300 min | duration of the effect, O. Fem. (output of right femoral artery) (anesthetized dogs): 300 min | % variation T.P.R. (total peripheral resistances) (anesthetized dogs; calculated): -53.4% | duration of the effect, T.P.R. (total peripheral resistances) (anesthetized dogs; calculated): 300 min | cardiac, femoral and coronary outputs (in words) (anesthetized dogs; [3]): increased for a longer time and to a greater extent | drop in total peripheral resistances (in words) (anesthetized dogs; [3]): greater drop in total peripheral resistances than nicardipine and nifedipine | duration of drop in total peripheral resistances (in words) (anesthetized dogs; [3]): considerably longer

— US4710505A, “Asymmetric heterocyclic ester derivatives of 1,4-dihydropyridine-3,5-dicarboxylic acids” (Societe de Recherches Industrielles (S.O.R.I.), priority 1985, dated 1987)
